Assays:
Format in all cases: cell-based
[1] = system: monkeypoxvirus
[2] = system: cowpoxvirus
[3] = system: vaccinia virus

Measured: prevention of spread of virus to Jurkat T cells

O=C(NN1C(=O)[C@@H]2[C@@H]3C=C[C@@H]([C@H]4C[C@@H]34)[C@@H]2C1=O)c1ccc(C(F)(F)F)cc1 [ST246]
~90%: all assays above

From patent US20140335115A1 (priority 2013, published 2014)
